# Measurements: PubChem BioAssay (NCI)
#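 All cell lines were grown in 96-well plates and treated with compound for 48 hours. TGI denotes the concentration required for complete inhibition of growth.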
# Tested on: NCI-H522 lung
# Experiment: DTP human tumour cell line panel, 48 h
row,SMILES,TGI [µM]
1,C#CCn1c(=O)[nH]c(=O)c2cccnc21,> 100
2,Cc1ccccc1NC(=O)C(=O)C1CN(c2ccccc2)N=C1N (configuration not stated),> 100

# Tested on: K-562 leukemia
# Experiment: DTP human tumour cell line panel, 48 h
row,SMILES,TGI [µM]
1,O=c1[nH]c2cc([N+](=O)[O-])ccc2nc1/C(=N/Nc1ccccc1)C(O)c1ccc(Cl)cc1Cl (configuration not stated),> 100
2,Cc1cc(C)nc(NS(=O)(=O)c2ccc(NC(=O)c3cccc4c(Nc5ccc(S(=O)(=O)N=C(N)N)cc5)c5ccccc5nc34)cc2)n1,> 100
3,Cc1ccccc1NC(=O)C(=O)C1CN(c2ccccc2)N=C1N (configuration not stated),> 100
4,CCOC(=O)NC(=O)c1cn(CCN2CCN(C(=O)CCCCCCCCCCNc3ncnc4c3ncn4C3OC(CO)C(O)C3O)CC2)c(=O)[nH]c1=O (configuration not stated),> 100

# Tested on: SK-OV-3 ovarian
# Experiment: DTP human tumour cell line panel, 48 h
row,SMILES,TGI [µM]
1,O=c1[nH]c2cc([N+](=O)[O-])ccc2nc1/C(=N/Nc1ccccc1)C(O)c1ccc(Cl)cc1Cl (configuration not stated),> 100
2,Cc1cc(C)nc(NS(=O)(=O)c2ccc(NC(=O)c3cccc4c(Nc5ccc(S(=O)(=O)N=C(N)N)cc5)c5ccccc5nc34)cc2)n1,> 100
3,C#CCn1c(=O)[nH]c(=O)c2cccnc21,> 100
4,Cc1ccccc1NC(=O)C(=O)C1CN(c2ccccc2)N=C1N (configuration not stated),> 100
5,CCOC(=O)NC(=O)c1cn(CCN2CCN(C(=O)CCCCCCCCCCNc3ncnc4c3ncn4C3OC(CO)C(O)C3O)CC2)c(=O)[nH]c1=O (configuration not stated),> 100

# Tested on: NCI-H226 lung
# Experiment: DTP human tumour cell line panel, 48 h
row,SMILES,TGI [µM]
1,O=c1[nH]c2cc([N+](=O)[O-])ccc2nc1/C(=N/Nc1ccccc1)C(O)c1ccc(Cl)cc1Cl (configuration not stated),> 100
2,C#CCn1c(=O)[nH]c(=O)c2cccnc21,> 100
3,Cc1ccccc1NC(=O)C(=O)C1CN(c2ccccc2)N=C1N (configuration not stated),> 100

# Tested on: CCRF-CEM leukemia
# Experiment: DTP human tumour cell line panel, 48 h
row,SMILES,TGI [µM]
1,O=c1[nH]c2cc([N+](=O)[O-])ccc2nc1/C(=N/Nc1ccccc1)C(O)c1ccc(Cl)cc1Cl (configuration not stated),> 100
2,Cc1cc(C)nc(NS(=O)(=O)c2ccc(NC(=O)c3cccc4c(Nc5ccc(S(=O)(=O)N=C(N)N)cc5)c5ccccc5nc34)cc2)n1,> 100
3,Cc1ccccc1NC(=O)C(=O)C1CN(c2ccccc2)N=C1N (configuration not stated),> 100
4,CCOC(=O)NC(=O)c1cn(CCN2CCN(C(=O)CCCCCCCCCCNc3ncnc4c3ncn4C3OC(CO)C(O)C3O)CC2)c(=O)[nH]c1=O (configuration not stated),> 100

# Tested on: A498 renal
# Experiment: DTP human tumour cell line panel, 48 h
row,SMILES,TGI [µM]
1,O=c1[nH]c2cc([N+](=O)[O-])ccc2nc1/C(=N/Nc1ccccc1)C(O)c1ccc(Cl)cc1Cl (configuration not stated),> 100
2,Cc1cc(C)nc(NS(=O)(=O)c2ccc(NC(=O)c3cccc4c(Nc5ccc(S(=O)(=O)N=C(N)N)cc5)c5ccccc5nc34)cc2)n1,> 100
3,Cc1ccccc1NC(=O)C(=O)C1CN(c2ccccc2)N=C1N (configuration not stated),> 100
4,CCOC(=O)NC(=O)c1cn(CCN2CCN(C(=O)CCCCCCCCCCNc3ncnc4c3ncn4C3OC(CO)C(O)C3O)CC2)c(=O)[nH]c1=O (configuration not stated),> 100

# Tested on: NCI-H23 lung
# Experiment: DTP human tumour cell line panel, 48 h
row,SMILES,TGI [µM]
1,O=c1[nH]c2cc([N+](=O)[O-])ccc2nc1/C(=N/Nc1ccccc1)C(O)c1ccc(Cl)cc1Cl (configuration not stated),> 100
2,Cc1cc(C)nc(NS(=O)(=O)c2ccc(NC(=O)c3cccc4c(Nc5ccc(S(=O)(=O)N=C(N)N)cc5)c5ccccc5nc34)cc2)n1,> 100
3,C#CCn1c(=O)[nH]c(=O)c2cccnc21,> 100
4,Cc1ccccc1NC(=O)C(=O)C1CN(c2ccccc2)N=C1N (configuration not stated),> 100
5,CCOC(=O)NC(=O)c1cn(CCN2CCN(C(=O)CCCCCCCCCCNc3ncnc4c3ncn4C3OC(CO)C(O)C3O)CC2)c(=O)[nH]c1=O (configuration not stated),> 100

# Tested on: SK-MEL-28 melanoma
# Experiment: DTP human tumour cell line panel, 48 h
row,SMILES,TGI [µM]
1,Cc1cc(C)nc(NS(=O)(=O)c2ccc(NC(=O)c3cccc4c(Nc5ccc(S(=O)(=O)N=C(N)N)cc5)c5ccccc5nc34)cc2)n1,99.8
2,C#CCn1c(=O)[nH]c(=O)c2cccnc21,> 100
3,Cc1ccccc1NC(=O)C(=O)C1CN(c2ccccc2)N=C1N (configuration not stated),> 100
4,CCOC(=O)NC(=O)c1cn(CCN2CCN(C(=O)CCCCCCCCCCNc3ncnc4c3ncn4C3OC(CO)C(O)C3O)CC2)c(=O)[nH]c1=O (configuration not stated),> 100

# Tested on: LXFL 529 NSCLC
# Experiment: DTP human tumour cell line panel, 48 h
row,SMILES,TGI [µM]
1,Cc1cc(C)nc(NS(=O)(=O)c2ccc(NC(=O)c3cccc4c(Nc5ccc(S(=O)(=O)N=C(N)N)cc5)c5ccccc5nc34)cc2)n1,59.1
2,C#CCn1c(=O)[nH]c(=O)c2cccnc21,> 100
3,Cc1ccccc1NC(=O)C(=O)C1CN(c2ccccc2)N=C1N (configuration not stated),> 100
4,CCOC(=O)NC(=O)c1cn(CCN2CCN(C(=O)CCCCCCCCCCNc3ncnc4c3ncn4C3OC(CO)C(O)C3O)CC2)c(=O)[nH]c1=O (configuration not stated),> 100

# Tested on: HOP-18 NSCLC
# Experiment: DTP human tumour cell line panel, 48 h
row,SMILES,TGI [µM]
1,O=c1[nH]c2cc([N+](=O)[O-])ccc2nc1/C(=N/Nc1ccccc1)C(O)c1ccc(Cl)cc1Cl (configuration not stated),> 100
2,Cc1cc(C)nc(NS(=O)(=O)c2ccc(NC(=O)c3cccc4c(Nc5ccc(S(=O)(=O)N=C(N)N)cc5)c5ccccc5nc34)cc2)n1,> 100
3,C#CCn1c(=O)[nH]c(=O)c2cccnc21,> 100

# Tested on: 786-0 renal
# Experiment: DTP human tumour cell line panel, 48 h
row,SMILES,TGI [µM]
1,O=c1[nH]c2cc([N+](=O)[O-])ccc2nc1/C(=N/Nc1ccccc1)C(O)c1ccc(Cl)cc1Cl (configuration not stated),> 100
2,Cc1cc(C)nc(NS(=O)(=O)c2ccc(NC(=O)c3cccc4c(Nc5ccc(S(=O)(=O)N=C(N)N)cc5)c5ccccc5nc34)cc2)n1,83.6
3,C#CCn1c(=O)[nH]c(=O)c2cccnc21,> 100
4,Cc1ccccc1NC(=O)C(=O)C1CN(c2ccccc2)N=C1N (configuration not stated),> 100
5,CCOC(=O)NC(=O)c1cn(CCN2CCN(C(=O)CCCCCCCCCCNc3ncnc4c3ncn4C3OC(CO)C(O)C3O)CC2)c(=O)[nH]c1=O (configuration not stated),> 100

# Tested on: OVCAR-4 ovarian
# Experiment: DTP human tumour cell line panel, 48 h
row,SMILES,TGI [µM]
1,O=c1[nH]c2cc([N+](=O)[O-])ccc2nc1/C(=N/Nc1ccccc1)C(O)c1ccc(Cl)cc1Cl (configuration not stated),> 100
2,Cc1cc(C)nc(NS(=O)(=O)c2ccc(NC(=O)c3cccc4c(Nc5ccc(S(=O)(=O)N=C(N)N)cc5)c5ccccc5nc34)cc2)n1,43.7
3,C#CCn1c(=O)[nH]c(=O)c2cccnc21,> 100
4,Cc1ccccc1NC(=O)C(=O)C1CN(c2ccccc2)N=C1N (configuration not stated),> 100

# Tested on: IGROV1 ovarian
# Experiment: DTP human tumour cell line panel, 48 h
row,SMILES,TGI [µM]
1,O=c1[nH]c2cc([N+](=O)[O-])ccc2nc1/C(=N/Nc1ccccc1)C(O)c1ccc(Cl)cc1Cl (configuration not stated),> 100
2,Cc1cc(C)nc(NS(=O)(=O)c2ccc(NC(=O)c3cccc4c(Nc5ccc(S(=O)(=O)N=C(N)N)cc5)c5ccccc5nc34)cc2)n1,> 100
3,Cc1ccccc1NC(=O)C(=O)C1CN(c2ccccc2)N=C1N (configuration not stated),> 100
4,CCOC(=O)NC(=O)c1cn(CCN2CCN(C(=O)CCCCCCCCCCNc3ncnc4c3ncn4C3OC(CO)C(O)C3O)CC2)c(=O)[nH]c1=O (configuration not stated),> 100

# Tested on: LOX IMVI melanoma
# Experiment: DTP human tumour cell line panel, 48 h
row,SMILES,TGI [µM]
1,O=c1[nH]c2cc([N+](=O)[O-])ccc2nc1/C(=N/Nc1ccccc1)C(O)c1ccc(Cl)cc1Cl (configuration not stated),> 100
2,Cc1cc(C)nc(NS(=O)(=O)c2ccc(NC(=O)c3cccc4c(Nc5ccc(S(=O)(=O)N=C(N)N)cc5)c5ccccc5nc34)cc2)n1,> 100
3,C#CCn1c(=O)[nH]c(=O)c2cccnc21,> 100
4,CCOC(=O)NC(=O)c1cn(CCN2CCN(C(=O)CCCCCCCCCCNc3ncnc4c3ncn4C3OC(CO)C(O)C3O)CC2)c(=O)[nH]c1=O (configuration not stated),> 100

# Tested on: KM12 colon
# Experiment: DTP human tumour cell line panel, 48 h
row,SMILES,TGI [µM]
1,O=c1[nH]c2cc([N+](=O)[O-])ccc2nc1/C(=N/Nc1ccccc1)C(O)c1ccc(Cl)cc1Cl (configuration not stated),> 100
2,Cc1cc(C)nc(NS(=O)(=O)c2ccc(NC(=O)c3cccc4c(Nc5ccc(S(=O)(=O)N=C(N)N)cc5)c5ccccc5nc34)cc2)n1,26.9
3,C#CCn1c(=O)[nH]c(=O)c2cccnc21,> 100
4,CCOC(=O)NC(=O)c1cn(CCN2CCN(C(=O)CCCCCCCCCCNc3ncnc4c3ncn4C3OC(CO)C(O)C3O)CC2)c(=O)[nH]c1=O (configuration not stated),> 100

# Tested on: OVCAR-3 ovarian
# Experiment: DTP human tumour cell line panel, 48 h
row,SMILES,TGI [µM]
1,O=c1[nH]c2cc([N+](=O)[O-])ccc2nc1/C(=N/Nc1ccccc1)C(O)c1ccc(Cl)cc1Cl (configuration not stated),> 100
2,Cc1cc(C)nc(NS(=O)(=O)c2ccc(NC(=O)c3cccc4c(Nc5ccc(S(=O)(=O)N=C(N)N)cc5)c5ccccc5nc34)cc2)n1,35.5
3,Cc1ccccc1NC(=O)C(=O)C1CN(c2ccccc2)N=C1N (configuration not stated),> 100
